Data from patent US8263610B2, “Substituted imidazolyl-5,6-dihydrobenzo[N]isoquinoline compounds” (ArQule, Inc., priority 2008, dated 2012).

Key:
Test in all cases: MTS assay, inhibition of cell growth
Assay type in all cases: cell-based
Kato III cells = settings: Homo sapiens, compound at 10 μM, 72 hours
Procedure: (§1) MDA-MB-231, DLD-1, Kato III NCI-H1299, PACA-2 cells, were maintained at 37° C., 5% CO2 in DMEM media supplemented with 10% fetal bovine serum, penicillin/streptomycin and fungizone (Invitrogen). Cells were seeded into 96-well tissue culture plates at 3000 per well and cultured at 37° C. for 18 hours. Test compounds were dissolved and diluted to 300× in DMSO then further diluted 1:40 in DMEM before addition to cells (1:7.5 dilution). Cells were incubated with test compounds for 72 hours followed by incubation with tetrazolium compound (3-(4,5-dimethylthiazol-2-yl)-5-(3-carboxymethoxyphenyl)-2-(4-sulfophenyl)-2H-tetrazolium, inner salt; MTS) and the electron coupling reagent, phenazine methosulfate (PMS) for 4 hours. […] The ability of compounds to inhibit cell growth in this assay is correlated with the reduction of dehydrogenase enzyme activity found in metabolically active cells. The measurement of the absorbance of the formazan was assessed using an ENVISION™ (Perkin Elmer) microplate reader at 492 nm.

MDA-MB-231 cells = settings: Homo sapiens, compound at 10 μM, 72 hours
Procedure: as §1

PACA-2 cells = settings: compound at 10 μM, 72 hours
Procedure: as §1

DLD-1 cells = settings: Homo sapiens, compound at 10 μM, 72 hours
Procedure: as §1

NCI-H1299 cells = settings: Homo sapiens, compound at 10 μM, 72 hours
Procedure: as §1

| Structure (SMILES) | inhibition at 10 µM (Kato III cells) [%] | inhibition at 10 µM (MDA-MB-231 cells) [%] | inhibition at 10 µM (PACA-2 cells) [%] | inhibition at 10 µM (DLD-1 cells) [%] | inhibition at 10 µM (NCI-H1299 cells) [%] |
| --- | --- | --- | --- | --- | --- |
| CS(=O)(=O)N1CCc2c(cnc3[nH]ncc23)C1 [7-(methylsulfonyl)-6,7,8,9-tetrahydro-3H-pyrazolo[3,4-c][2,7]naphthyridine] | 75 to 100 | 75 to 100 | 75 to 100 | 75 to 100 | 75 to 100 |
| COc1ccc(S(=O)(=O)N2CCc3c(cnc4[nH]ncc34)C2)cc1OC [7-[(3,4-dimethoxyphenyl)sulfonyl]-6,7,8,9-tetrahydro-3H-pyrazolo[3,4-c][2,7]napthyridine] | 75 to 100 | 75 to 100 | 75 to 100 | 75 to 100 | 75 to 100 |
| COc1ccc(CN2CCN(C(=O)N3CCc4c(cnc5[nH]ncc45)C3)CC2)cc1 [7-{[4-(4-methoxybenzyl)piperazin-1-yl]carbonyl}-6,7,8,9-tetrahydro-3H-pyrazolo[3,4-c][2,7]naphthyridine] | 75 to 100 | 75 to 100 | 75 to 100 | 75 to 100 | < 24 |
| Clc1ccccc1CN1CCN(c2ncc3c(n2)CCc2cnc4[nH]ncc4c2-3)CC1 [9-[4-(2-chlorobenzyl)piperazin-1-yl]-6,7-dihydro-3H-pyrazolo[4′3′:5,6]pyrido[4,3-f]quinazoline] | 75 to 100 | 75 to 100 | 75 to 100 | 75 to 100 | 75 to 100 |
| CN(C)CCNC(C(=O)N1CCc2c(cnc3[nH]nc(-c4ccccc4)c23)C1)c1ccccc1 (stereo not shown) [N,N-dimethyl-N′-[2-oxo-1-phenyl-2-(1-phenyl-3,6,8,9-tetrahydro-7H-pyrazolo[3,4-c][2,7]napthyridin-7-yl)ethyl]ethane-1,2-diamine] | 75 to 100 | 75 to 100 | 75 to 100 | 75 to 100 | 75 to 100 |
| O=C(NCCc1cccc(Cl)c1)c1cccc(NC(=O)N2CCc3c(cnc4[nH]ncc34)C2)c1 [N-(3-{[2-(3-chlorophenyl)ethyl]carbamoyl}phenyl)-3,6,8,9-tetrahydro-7H-pyrazolo[3,4-c][2,7]naphthyridine-7-carboxamide] | 75 to 100 | 75 to 100 | 75 to 100 | 75 to 100 | 25 to 49 |
| c1nc2[nH]ncc2c2c1CCc1nc(NCC3CCCCCC3)ncc1-2 [N-(cycloheptylmethyl)-6,7-dihydro-3H-pyrazolo[4′,3′:5,6]pyrido[4,3-f]quinazolin-9-amine] | 75 to 100 | 75 to 100 | 75 to 100 | 75 to 100 | 75 to 100 |
| O=C(NCC1CCCCC1)N1CCc2c(cnc3[nH]ncc23)C1 [N-(cyclohexylmethyl)-3,6,8,9-tetrahydro-7H-pyrazolo[3,4-c][2,7]naphthyridine-7-carboxamide] | 75 to 100 | 75 to 100 | 75 to 100 | 75 to 100 | 75 to 100 |
| FC(F)(F)c1cccc(CNc2ncc3c(n2)CCc2cnc4[nH]ncc4c2-3)c1 [N-[3-(trifluoromethyl)benzyl]-6,7-dihydro-3H-pyrazolo[4′,3′:5,6]pyrido[4,3-f]quinazolin-9-amine] | 75 to 100 | 75 to 100 | 75 to 100 | 75 to 100 | 75 to 100 |
| CN(C)c1ccc(NC(=O)N2CCc3c(cnc4[nH]ncc34)C2)cc1 [N-[4-(dimethylamino)phenyl]-3,6,8,9-tetrahydro-7H-pyrazolo[3,4-c][2,7]naphthyridine-7-carboxamide] | 75 to 100 | 75 to 100 | 75 to 100 | 75 to 100 | 75 to 100 |
| O=C(Nc1ccccc1)N1CCc2c(cnc3[nH]nc(-c4cccc(C(F)(F)F)c4)c23)C1 [N-phenyl-1-[3-(trifluoromethyl)phenyl]-3,6,8,9-tetrahydro-7H-pyrazolo[3,4-c][2,7]naphthyridine-7-carboxamide] | 75 to 100 | 75 to 100 | 75 to 100 | 75 to 100 | 75 to 100 |
| CC(C)(C)NC1CCc2c(cnc3[nH]ncc23)C1 (stereo not shown) [N-tert-butyl-6,7,8,9-tetrahydro-3H-pyrazolo[3,4-c]isoquinolin-7-amine] | 75 to 100 | 75 to 100 | 75 to 100 | 75 to 100 | 75 to 100 |
| O=C(NCCN1CCOCC1)c1cccc(NC(=O)N2CCc3c(cnc4[nH]ncc34)C2)c1 [N-{3-[(2-morpholin-4-ylethyl)carbamoyl]phenyl}-3,6,8,9-tetrahydro-7H-pyrazolo[3,4-c][2,7]napthyridine-7-carboxamide] | 75 to 100 | 75 to 100 | 75 to 100 | 75 to 100 | 75 to 100 |
| Fc1ccc(C2Cc3cnc4[nH]ncc4c3-c3ccccc32)cc1 (stereo not shown) [drawing 558, 7-(4-fluorophenyl)-6,7-dihydro-3H-benzo[f]pyrazolo[3,4-c]isoquinoline] | 50 to 74 | 75 to 100 | 75 to 100 | 75 to 100 | 25 to 49 |
| O=S(=O)(NC1CCc2c(cnc3[nH]ncc23)C1)c1ccccc1 (stereo not shown) [drawing 563, N-(6,7,8,9-tetrahydro-3H-pyrazolo[3,4-c]isoquinolin-7-yl)benzenesulfonamide] | 75 to 100 | 75 to 100 | 75 to 100 | 75 to 100 | 25 to 49 |
| CC(C)(C)OC(=O)N1CCc2c(cnc3[nH]ncc23)C1 [drawing 579, tert-butyl 3,6,8,9-tetrahydro-7H-pyrazolo[3,4-c][2,7]naphthyridine-7-carboxylate] | 75 to 100 | 75 to 100 | 75 to 100 | 75 to 100 | 75 to 100 |
| Cc1nc(-c2cccc(NC(=O)N3CCc4c(cnc5[nH]nc(Br)c45)C3)c2)cs1 [drawing 580, 1-bromo-N-[3-(2-methyl-1,3-thiazol-4-yl)phenyl]-3,6,8,9-tetrahydro-7H-pyrazolo[3,4-c][2,7]naphthyridine-7-carboxamide] | 75 to 100 | < 24 | 25 to 49 | 75 to 100 | 50 to 74 |
| O=C(c1ccccc1)c1c[nH]c2ncnc(N3CCc4c(cnc5[nH]nc(Br)c45)C3)c12 [drawing 582] | 75 to 100 | 50 to 74 | 75 to 100 | 50 to 74 | 75 to 100 |
| CC(C)(C)OC(=O)N1CCc2c(cnc3[nH]nc(Br)c23)C1 [drawing 588, tert-butyl 1-bromo-3,6,8,9-tetrahydro-7H-pyrazolo[3,4-c][2,7]naphthyridine--7-carboxylate] | 75 to 100 | 75 to 100 | 75 to 100 | 75 to 100 | 75 to 100 |
| CCOC(=O)CNC(=O)N1CCc2c(cnc3[nH]ncc23)C1 [ethyl N-(3,6,8,9-tetrahydro-7H-pyrazolo[3,4-c][2,7]naphthyridin-7-ylcarbonyl)glycinate] | 75 to 100 | 75 to 100 | 75 to 100 | 75 to 100 | 75 to 100 |
